Laboratory results taken from patent US20070135365A1, “Pharmaceutical composition for preventing or remedying cardiac hypertrophy and cardiovascular disease caused thereby” (priority 2003, published 2007).

How the values were obtained:
[1] = system: neonatal rat cardiomyocytes (NRC); assay: Immunofluorescence of α-actinin: sarcomere structures (cardiac hypertrophy state) in drug-treated NRC; format: cell-based
Experimental: (§1) NRC prepared by a method similar to the method as described in (1) of Experiment 1 was moved to a glass culture plate (35 mm diameter) coated with poly-L-lysine, and was cultured over night (5% CO2 concentration, 37° C.) in DMEM without blood serum (manufactured by Nacalai Tesque). TPA was added to this to make a final concentration of 20 nM, and this was cultured a further 18 hours (5% CO2 concentration, 37° C.) (approximately 1×10^3 cells). After culturing, the cells obtained were rinsed 2 times with PBS, fixed by treating with 4 w/v % paraformaldehide for 30 minutes at room temperature, treated by soaking in PBS containing 0.25 v/v % Triton X-100 for 30 minutes at 4° C., and then incubated in blocking buffer solution (PBS containing 3 w/v % BSA, 2 v/v % FBS, 1 v/v % normal goat blood serum, and 0.03 v/v % Triton X-100).
(§2) This was rinsed 2 times in PBS, moved into PBS containing 0.3 v/v % Cy3-labeled anti-mouse IgG antibody, and 0.3 v/v % Cy2-labeled anti-rabbit IgG antibody (second antibody) (both manufactured by Amersham Pharmacia), and incubated for 1 hour at room temperature. The fluorescent signals of the cells were observed by a confocal laser scanning microscope LSM5 Pascal (manufactured by Carl Zeiss Inc.). Untreated NRC (None), which was not treated with TPA, was labeled with antibodies in the same manner as a contrast, and the results of observing the cell luminescence signals by confocal laser microscope (LSM5 Pascal) are indicated in FIG. 3B.
(§3) Specifically, NRC prepared by the same method as described above in (1) of Experiment 1 was moved to a glass culture plate (35 mm diameter) coated with poly-L-lysin, and was cultured over night (5% CO2 concentration, 37° C.) in DMEM without blood serum (manufactured by Nacalai Tesque). Five samples of the culture cells in question were used and added respectively to (1) 100 μM (final concentration, same hereinafter) NE (containing 2 μM propranol), (2) 100 μM AngII, (3) 20 nM LIF, (4) 100 μM NE (containing 2 μM propranol)+400 nM GF109203X (concretely, treated for 30 minutes by adding GF109203X, and then NE was added), (5) 20 nM LIF+400 nM GF109203X (concretely, treated for 30 minutes by adding GF109203X, and then LIF was added), and these were cultured a further 38 hours (5% CO2 concentration, 37° C.) (approximately 1×10^3 cells).
(§4) After culturing, the cells were rinsed 2 times with PBS, fixed by treating with 4 w/v % paraformaldehide for 30 minutes at room temperature, treated by soaking in PBS containing 0.25 v/v % Triton X-100 for 30 minutes at 4° C., and then incubated in blocking buffer solution (PBS containing 3 w/v % BSA, 2 v/v % FBS, 1 v/v % normal goat blood serum, and 0.03 v/v % Triton X-100). […] This was rinsed 2 times in PBS, moved into PBS containing 0.3 v/v % Cy3-labeled anti-mouse IgG antibody, and 0.3 v/v % Cy2-labeled anti-rabbit IgG antibody (second antibody) (both manufactured by Amersham Pharmacia), and incubated for 1 hour at room temperature. The fluorescent signals of the cells were observed by a confocal laser scanning microscope LSM5 Pascal (manufactured by Carl Zeiss Ltd.).

[2] = system: fully active PKD1 (phosphorylated PKD1); assay: Immunofluorescence: intracellular distribution of fully active PKD1 in drug-treated NRC; format: cell-based, rat; conditions: for full activation (phosphorylation) of PKD1 and movement to sarcomere Z-discs: 100 μM NE (containing 2 μM propranol), 100 μM AngII or 20 nM LIF
Experimental: as §1, §2, §3, §4

PKD1 [3] = assay: Immunoprecipitation kinase assay with Syntide-2 on PKD1 from drug-treated NRC; format: cell-based, rat; conditions: for phosphorylation activity of PKD1 (Syntide-2) relative to untreated NRC: NRC treated 20 minutes, 100 nM TPA, 100 μM NE (containing 2 μM propranol) or 20 nM LIF, n=9
Experimental: The ability of PKD1 to phosphorylate Syntide-2 (APLARTLSVAGLPGKK), which is a selective substance for PKD1, can be used as an index to assess PKD1 activity (Valverde, A. M., et al., Proc. Natl. Acad. Sci. USA, 91, 1994, p. 8572-8576).
Concretely, immunoprecipitation kinase assays using Syntide-2 as a substrate were conducted on the following NRC samples: NRC samples with cardiac hypertrophy induced by treating for 20 minutes respectively with (1) 100 nM TPA, (2) 100 μM NE, and (3) 20 nM LIF, and NRC samples treated for 20 minutes respectively with (4) 400 nM GF109203X (PKC inhibitor), (5) 20 nM TPA+400 nM GF109203X, (6) 100 μM NE+400 nM GF109203X, and (7) 20 nM LIF+400 nM GF109203X. The phosphorylation activity of PKD1 present in the various NRC samples was measured. In addition, as a control, the phosphorylation activity of PKD1 present in NRC that was not treated with anything (untreated NRC) was described and measured in the same way.
NRC prepared by the same method as described in (1) of Experiment 1 was cultured over night (5% CO2 concentration, 37° C.) in DMEM without blood serum (manufactured by Nacalai Tesque). To the cultured cells, (1) 100 nM TPA, (2) 100 μM NE (containing 2 μM propranol), (3) 20 nM LIF, (4) 400 nM GF109203X (PKC inhibitor), (5) 20 nM TPA+400 nM GF109203X, (6) 100 μM NE+400 nM GF109203X, and (7) 20 nM LIF+400 nM GF109203X were added respectively, and treated for 20 minutes. The cells obtained were treated with Lysis buffer solution A, and incubated for 60 minutes on ice together with anti-fully active PKD1 polyclonal antibody. This was treated with protein G Sepharose 4B, and protein bound to the resin (Protein G Sepharose 4B bound PKD1-anti-PKD1 antibody complex) was recovered. The PKD1 immunoprecipitate was rinsed 1 time in Lysis buffer solution A, and further rinsed 2 times with Lysis buffer solution A not containing NaF.
The PKD1 was eluted from PKD1 immunoprecipitate obtained by incubating in Lysis buffer solution A not containing NaF together with 100 μL of 0.5 mg/mL immunizing peptide. The immunizing peptide is an antigen peptide used in order to immunize test animals to create anti-fully active PKD1 polyconal antibody. When incubating this peptide with protein G Sepharose 4B bound PKD1-anti-PKD1 antibody complex, the aforementioned antigen peptide and the anti-PKD1 antibody bond, and as a result, PKD1 can be freed and obtained.
The eluted PKD1 (10 μL) was incubated for 5 minutes at 30° C. together with assay mixed solution (15 μL Tris/MgCl2 (100 mM Tris, 100 mM MgCl2), 5 μL ATP (800 μM), 0.2 μL ^32γ-ATP, and 40 μg Syntide-2). Next, the PKD1 phosphorylation activity was measured by liquid scintillation counter (n=9).

PKCε and PKD1 = assay: Immunoprecipitation assay and Western blotting for interaction of PKCε and PKD1 in NE-treated NRC; format: cell-based, rat; conditions: 100 μM NE (containing 2 μM propranol), versus NRC not treated with NE
Experimental: Primary NRC in culture prepared according to the method described in Experiment 1 (1) was treated with 100 μM NE (containing 2 μM propranol) in the same manner as in Experiment 3; the NE treated NRC in question was treated with Lysis buffer solution A; and 1 mL of cell extract (cell lysate) was obtained. […] of the cell extract was incubated for 60 minutes on ice together with anti-PKD1/2 monoclonal antibody; and this was then treated with protein G Sepharose 4B, and protein bound to the resin in question (anti-PKD1 antibody immunoprecipitate sample) was recovered. As indicated in experiment 1, no PKD2 was present in the NRC. Using anti-PKDε monoclonal antibody made in the same manner, anti-PKDε antibody immunoprecipitate sample was collected. As a control, 1 mL cell extract (cell lysate) of untreated NRC was obtained in the same way, and anti-PKDε antibody immunoprecipitate sample and anti-PKD1 antibody immunoprecipitate sample were prepared.
Next, Western blotting was conducted on the anti-PKCε antibody immunoprecipitate samples and the cell extract (cell lysate) obtained for the various NRC by using anti-PKD1/2 monoclonal antibody as the first antibody, and anti-mouse or anti-rabbit IgG bound with horseradish derived peroxidase (manufactured by Amersham Pharmacia) as the second antibody. […]

PKD1 [4] = assay: Western blotting of cytoplasm and cell membrane fractions of TPA-treated NRC; format: cell-based, rat; conditions: 100 nM TPA, 20 minutes, versus untreated
Experimental: The NRC prepared above was moved to non-serum DMEM (manufactured by Nacalai Tesque), and cultured overnight (5% CO2 concentration, 37° C.). Then, TPA was added to the culture to make a final concentration of 100 nM, and incubated for 20 minutes. Next, the cardiomyocytes were recovered and rinsed in PBS, subjected to bacteriolysis by treating with Lysis buffer solution (having the same composition as Lysis buffer solution A except that the Triton X-100 was 0.1%), centrifuged (15000 rpm, approximately 10 minutes), and fractioned into supernatant (cytoplasm fraction) and precipitate. The precipitate was further dissolved in Lysis buffer solution A. This was lightly separated by centrifuge, and the supernatant obtained was taken as the cell membrane fraction. As a control, NRC that was not treated with TPA was subjected to bacteriolysis, and the cytoplasm and cell membrane fractions were separated in the same manner as above (untreated substance). […]
Next, anti-mouse or anti-rabbit IgG bound with horseradish derived peroxidase (manufactured by Amersham Pharmacia) was used as the second antibody reagent, so that it is possible to observe the blotting results with chemical luminescence on X-ray film.

[5] = system: fully active PKD1 (phosphorylated PKD1); assay: Immunofluorescence: intracellular distribution of fully active PKD1 in drug-treated NRC; format: cell-based, rat; conditions: cardiomyocytes in which EGF was allowed to act
[6] = 38 hours, 100 μM NE (containing 2 μM propranol), 100 μM AngII or 20 nM LIF
[7] = 400 nM GF109203X for 30 minutes, then 100 μM NE (containing 2 μM propranol), 38 hours

With “Angiotensin II (DRVYIHPF; Angiotensin-2; UniProt P01019 25-32, looked up) [AngII, cardiac hypertrophy inducer]” the “induction of cardiac hypertrophy (formation of sarcomere structures, visualization of Z-discs)” value (shortened to “induction of cardiac hypertrophy”) [1, 6] was “induced cardiac hypertrophy” and the “full activation (phosphorylation) of PKD1 and movement to sarcomere Z-discs” value (shortened to “full activation (phosphorylation)”) ([2]; 38 hours) was “PKD1 was fully activated (phosphorylated)”.
For NC[C@H](O)c1ccc(O)c(O)c1 [NE, Norepinephrine], the “induction of cardiac hypertrophy” value [1, 6] was “induced cardiac hypertrophy”, the “full activation (phosphorylation)” value ([2]; 38 hours) was “PKD1 was fully activated (phosphorylated)” and the “phosphorylation activity of PKD1 (Syntide-2) relative to untreated NRC” value (PKD1 [3]) was “notably higher phosphorylation activity”. The “formation of complex of PKCε and PKD1” value (PKCε and PKD1) was “complex of PKCε and PKD1 were formed”.
CN(C)CCCn1cc(C2=C(c3c[nH]c4ccccc34)C(=O)NC2=O)c2ccccc21 [GF109203X] was tested, and the “effect on LIF-induced cardiac hypertrophy” value ([1]; 400 nM GF109203X for 30 minutes, then 20 nM LIF, 38 hours) was “a cardiac hypertrophy state was revealed”, the “effect on NE-induced cardiac hypertrophy” value [1, 7] was “no cardiac hypertrophy is generated” and the “effect on NE-induced full activation of PKD1 and movement to sarcomere Z-discs” value [2, 7] was “no fully activated PKD1 (phosphorylation) and no movement to sarcomere Z-discs were observed”. The “intrinsic PKD1 activity with TPA plus PKC inhibitor” value (PKD1 [3]; NRC, 20 minutes, 20 nM TPA+400 nM GF109203X) was “suppressed to the same level as that of the negative control” and the “intrinsic PKD1 activity with NE plus PKC inhibitor” value (PKD1 [3]; NRC, 20 minutes, 100 μM NE+400 nM GF109203X) was “suppressed to the same level as that of the negative control”.
With CCCCCCCCCCCCCC(=O)O[C@@H]1[C@@H](C)[C@@]2(O)[C@@H](C=C(CO)C[C@]3(O)C(=O)C(C)=C[C@@H]23)[C@H]2C(C)(C)[C@]12OC(C)=O [TPA, 12-0-tetradecanoylphorbol 13-acetate] the “fully active PKD1 (phosphorylated PKD1) in cytoplasm and membrane fractions” value (PKD1 [4]) was “present in large amounts in the membrane fraction”, the “induction of cardiac hypertrophy” value ([1]; 20 nM TPA, 18 hours) was “cardiac hypertrophy was induced” and the “activation of PKD1 and localization of fully active PKD1” value ([2]; 20 nM TPA, 18 hours) was “the fully activated PKD1 moves to the sarcomere Z-disc region”. For the same compound, the “phosphorylation activity of PKD1 (Syntide-2) relative to untreated NRC” value (PKD1 [3]) was “notably higher phosphorylation activity”.
With Epidermal growth factor [EGF] the “full activation of PKD1 and movement to sarcomere Z-discs” value [5] was “also observed”.
In the case of Leukemia inhibitory factor [LIF], the “induction of cardiac hypertrophy” value [1, 6] is reported as “inducing cardiac hypertrophy”, the “full activation (phosphorylation)” value ([2]; 38 hours) is reported as “no full activation (phosphorylation) of PKD1 and no movement of PKD1 to the vicinity of the sarcomere Z-discs” and the “phosphorylation activity of PKD1 (Syntide-2) relative to untreated NRC” value (PKD1 [3]) is reported as “hardly different from that of untreated NRC”.
